Experiments:
PC12 cell = experiment: Protection against neuronal cell death induced by hydrogen peroxide (oxidative stress), Ez-Cytox viability; type: cell-based, Mouse; conditions: 100 nM, 350 μM hydrogen peroxide (about 90% of nerve cells killed without treatment)
Experimental: PC12 cell line (KCLB 21721, Korea Cell Line Bank, Seoul, Korea) was used to test the effect of P1P and the antibodies on the neuronal cell death caused by hydrogen peroxide and Aβ. The PC12 cells were cultured in RPMI 1640 medium containing 10% fetal bovine serum and 1% penicillin/streptomycin at 37° C. in a 5% CO2 incubator.
After culturing the cells for 24 hours, P1P, cyclic P1P and NAPS-1-P dissolved in DMSO to a concentration of 2 mM were diluted and added to the medium such that the concentrations were 10 nM, 100 nM and 1000 nM. After culturing for 1 hour, 350 μM of H2O2 was added to […] and cultured. Subsequently, in order to measure cell viability, the absorbance was measured at 450 nm using Ez-Cytox (Dogen) after 6 hours, and the efficacy of P1P and derivatives thereof against oxidative stress was measured. The cell death induced by Aβ was initiated by treating 10 μM of Aβ instead of 350 μM of hydrogen peroxide, and the efficacy of P1P and the antibodies against the cell death induced by Aβ was measured using Ez-Cytox after 24 hours.

Aβ antigen [1] = experiment: IgG isotyping (IgG1, IgG2a, IgG2b titer) in vaccinated mice; type: in vivo, Balb/c mice; conditions: blood collected at 4th week after the second vaccination
Experimental: (§1) The mice were inoculated with the vaccines prepared as described above. 6-week-old Balb/c mice were used in the experiment, and there were 4 mice per group. The mice were injected intramuscularly with the vaccines prepared containing PBS, Alum, S1P (EB101), P1P, cyclic P1P, and NAPS-1-P as described above. […] The vaccine candidates were inoculated twice at an interval of 3 weeks. PBS was used as a negative control without Aβ antigen, and S1P and Alum were used as control. Alum is an adjuvant used in vaccines and is known to induce a Th2 immune response, and thus was used as a positive control for the Th2 response, and S1P was used as a control for comparison of antibody producing-ability.
In the fourth week, which was the last week, about 300 to 400 μl of blood was collected from the heart, and the serum components were separated by centrifugation at 1400 rpm for 10 minutes at room temperature. The antibody-forming ability in the serum was determined as follows:
The IgG isotyping was measured in the same manner as the total IgG measurement except that the following antibodies were used as secondary antibodies. For IgG1, IgG2a and IgG2b, anti-mouse IgG1, IgG2a or IgG2b conjugated to horseradish peroxidase (Boehringer Mannheim) were used.

TNF-α = experiment: Th1 cytokine (TNF-α) from splenocytes of inoculated mice re-stimulated with Aβ antigen; type: in vivo; conditions: for TNF-α: splenocytes of vaccinated mice, re-stimulated with Aβ antigen 72 hours
Experimental: as §1
(§2) The spleen was removed from the mice inoculated as described above to obtain splenocytes. Red blood cells were lysed with 100 mM Tris buffer. The obtained splenocytes were washed twice with PBS and centrifuged at 1600 rpm for 5 minutes. […] The splenocytes thus obtained were re-stimulated with a constant amount of Aβ antigen for 72 hours.
(§3) Subsequently, Th1 cytokine (TNF-α) and Th2 cytokine (IL-4) secreted from the mouse splenocytes were subjected to an ELISpot assay using an ELISPOT (BD Pharmingen) kit according to the manufacturer's instructions. The number of colored spots was measured to compare the number of cytokine-secreting cells.

Aβ antigen [2] = experiment: Antibody-forming ability in vaccinated mice, total IgG titer (ELISA); type: in vivo, Balb/c mice; conditions: vaccine with Aβ antigen, intramuscular
Experimental: as §1
The antibody-forming ability in the serum was determined as follows:
A 96-well plate was coated with Aβ antigen (1 μg/mL) and reacted at room temperature overnight. Then, the solution in each well was removed and blocked with albumin. The primary antibody (the immune serum) was subjected to 2-fold dilution with the following composition solution (0.014 M sodium phosphate, pH 7.4, 0.15 M NaCl, 0.6% albumin, 0.05% thimerosal) and added to each well. After reacting at room temperature for about 1 hour, the antibodies were washed 5 times with PBS containing 0.05% Tween 20. Subsequently, a secondary antibody conjugated to horseradish peroxidase (goat mouse IgG conjugated to horseradish peroxidase, Boehringer Mannheim) was added and reacted at room temperature for 1 hour. After washing 5 times with PBS containing Tween, 100 μL of 3,3,5,5-tetramethyl benzidine (from Pierce Chemicals) was added for color development, and reacted at room temperature for 15 minutes. The color development reaction was terminated by adding sulfuric acid.

IL-4 = experiment: Th2 cytokine (IL-4) from splenocytes of inoculated mice re-stimulated with Aβ antigen; type: in vivo; conditions: for IL-4: splenocytes of vaccinated mice, re-stimulated with Aβ antigen 72 hours
Experimental: as §1, §2, §3

Raw264.7 cells = experiment: TNF-α production in LPS-stimulated macrophages (ELISA); type: cell-based, mouse; conditions: LPS 1 ng/mL; for Amount of TNF-α / inhibition at 0.01 µM / inhibition at 0.1 µM / inhibition at 0.5 µM / inhibition at 1 µM: 4 hours; for inhibition at 0.01 µM / inhibition at 0.1 µM / inhibition at 0.5 µM / inhibition at 1 µM: Mus musculus, RAW264.7, 4 h, read-out: Inhibition rate of TNF-α production
Experimental: Raw264.7 cells, which is a mouse macrophage cell line (Korean Cell Line Bank, cultured with RPMI 1640/10% fetal bovine serum) were seeded at 4.5×10^5/mL and cultured overnight, and then, treated with LPS (lipopolysaccharide) (1 ng/mL), and S1P and P1P diluted with a culture medium according to the concentrations ([…]). After culturing at 37° C. in a 5% CO2 incubator for 4 hours, the supernatant was collected and stored at 4° C. The concentration of TNF-α, an inflammatory cytokine secreted in the supernatant, was measured using an ELISA kit (BD OptEIA™ TNF Mouse set) according to the manufacturer's instructions. The culture medium was diluted by ¼ in all experimental groups except for the treated group, and the concentration was measured.

[3] = 2 weeks after secondary inoculation
[4] = 3 weeks after primary inoculation
[5] = 4 weeks after secondary inoculation

| SMILES | neuronal cell death induced by hydrogen peroxide (PC12 cell) | IgG1 Average Antibody Titer (Aβ antigen [1]) | IgG2a Average Antibody Titer (Aβ antigen [1]) | IgG2b Average Antibody Titer (Aβ antigen [1]) | TNF-α (TNF-α) | Average Antibody Titer (Aβ antigen [2]; [3]) | Average Antibody Titer (Aβ antigen [2]; [4]) | Average Antibody Titer (Aβ antigen [2]; [5]) | Average Antibody Titer (Aβ antigen [2]; Before inoculation) | IL-4 (IL-4) | Amount of TNF-α (Raw264.7 cells; 10 nM) | Amount of TNF-α (Raw264.7 cells; 100 nM) | Amount of TNF-α (Raw264.7 cells; 500 nM) | Amount of TNF-α (Raw264.7 cells; 1000 nM) | inhibition at 0.01 µM (Raw264.7 cells; 10 nM) | inhibition at 0.1 µM (Raw264.7 cells; 100 nM) | inhibition at 0.5 µM (Raw264.7 cells; 500 nM) | inhibition at 1 µM (Raw264.7 cells; 1000 nM) | further results |
| --- | --- | --- | --- | --- | --- | --- | --- | --- | --- | --- | --- | --- | --- | --- | --- | --- | --- | --- | --- |
| CCCCCCCCCCCCCC[C@@H](O)[C@H]1OP(=O)(O)OC[C@@H]1N [CP1P, O-cyclic P1P] | the nerve cells were not killed | 6100 ± 2100 | 0 | 0 | 42.9 ± 15.52 pg/mL | 11000 ± 2500 | 140 ± 50 | 9000 ± 2000 | 0 | 12.06 ± 1.25 pg/mL | 10600 pg/mL | 7800 pg/mL | 7500 pg/mL | 7550 pg/mL | 26.3% | 26.3% | 47.9% | 47.5% | – |
| CCCCCCCCCCCCCC[C@@H](O)[C@@H](O)[C@H](COP(=O)(O)O)NC(C)=O [NAPS-1-P, N-acetyl phytosphingosine-1-phosphate] | the nerve cells were not killed | 1700 ± 600 | 0 | 0 | 40.4 ± 15.52 pg/mL | 5600 ± 2000 | 84 ± 50 | 5600 ± 2000 | – | 11.04 ± 0.78 pg/mL | 15000 pg/mL | 15200 pg/mL | 12200 pg/mL | 10000 pg/mL | -4.2% | -4.2% | 15.3% | 30.6% | – |
| CCCCCCCCCCCCC/C=C/[C@@H](O)[C@@H](N)COP(=O)(O)O [S1P, sphingosine-1-phosphate] | – | 1200 ± 430 | 0 | 0 | 36.25 ± 20.15 pg/mL | 4000 ± 1500 | 140 ± 80 | 4800 ± 2000 | 0 | 11.84 ± 2.25 pg/mL | 15000 pg/mL | 13880 pg/mL | 12700 pg/mL | 116600 pg/mL | -4.2% | -4.2% | 11.8% | ~19% | increase in TNF-α, statistical significance (TNF-α; splenocytes of immunized mice): did not show a statistically significant increase; increase in IL-4, statistical significance (IL-4; splenocytes of immunized mice): statistically significant increase; secretion of TNF-α, trend with concentration (Raw264.7 cells): tended to decrease slightly in a concentration-dependent manner |
